According to BigSolDB 2.1:

COC(=O)Nc1nc2ccc(S(=O)c3ccccc3)cc2[nH]1 (configuration not stated)
solubility (mole fraction)
Settings | 278.15 K | 283.15 K | 288.15 K | 293.15 K | 298.15 K | 303.15 K | 308.15 K | 313.15 K | 318.15 K | 323.15 K
in 2-ethoxyethanol | 0.00043 | 0.000518 | 0.000583 | 0.000682 | 0.00079 | 0.000908 | 0.00104 | 0.00118 | 0.00132 | 0.00144
in 2-methoxyethanol | 0.000687 | 0.000777 | 0.000887 | 0.00104 | 0.00118 | 0.00133 | 0.0015 | 0.00173 | 0.00191 | 0.00215
in 2-propoxyethanol | 0.000338 | 0.000402 | 0.000476 | 0.000554 | 0.000629 | 0.000727 | 0.000802 | 0.0009 | 0.00103 | 0.00117
in DMAc | 0.00381 | 0.00471 | 0.00576 | 0.00659 | 0.00821 | 0.00976 | 0.0112 | 0.0125 | 0.0147 | 0.017
in DMF | 0.00284 | 0.00329 | 0.00363 | 0.00408 | 0.00454 | 0.00502 | 0.00576 | 0.00632 | 0.00718 | 0.00796
in DMSO | – | – | – | 0.00925 | 0.0109 | 0.012 | 0.0138 | 0.0157 | 0.0175 | 0.0194
in diglyme | 0.00015 | 0.000174 | 0.000203 | 0.000241 | 0.00028 | 0.000321 | 0.000362 | 0.000406 | 0.000454 | 0.000502
in methanol | 8.35e-05 | 9.72e-05 | 0.00012 | 0.000148 | 0.00017 | 0.000201 | 0.000242 | 0.000287 | 0.000332 | 0.000389
